Assay results reported in patent US7342011B2, “Rifamycin analogs and uses thereof” (priority 2003, dated 2008).
Converted amounts (≈) assume the structure as drawn.

How the values were obtained:
Format in all cases: cell-based
H. flu = test: MIC assay, H. flu
S. aureus = test: MIC assay, S. aureus
S. pneumo. = test: MIC assay, S. pneumo.
E. faecalis = test: MIC assay, E. faecalis
E. coli = test: MIC assay, E. coli

SMILES: CCOC(=O)NC1CCN(c2cc(O)c3nc4c5c6c7c(C)c(O)c5c(=O)c(c-4oc3c2)NC(=O)/C(C)=C\C=C\[C@H](C)[C@H](O)[C@@H](C)[C@@H](O)[C@@H](C)[C@H](OC(C)=O)[C@H](C)[C@@H](OC)/C=C/O[C@@](C)(O7)C6=O)CC1 [Compound 1]
- MIC (μg/mL) H. flu (H. flu): 2 µg/mL (≈ 2.06 µM)
- MIC (μg/mL) S. aureus (S. aureus): 0.008 µg/mL (≈ 0.00824 µM)
- MIC (μg/mL) S. pneumo. (S. pneumo.): 0.00025 µg/mL (≈ 0.000257 µM)
- MIC (μg/mL) E. faecalis (E. faecalis): 2 µg/mL (≈ 2.06 µM)
- MIC (μg/mL) E. coli (E. coli): >8 µg/mL

SMILES: CCOC(=O)NC1CCN(c2cc(O)c3nc4c5c6c7c(C)c(O)c5c(=O)c(c-4oc3c2)NC(=O)C(C)=CC=CC(C)C(O)C(C)C(O)C(C)C(O)C(C)C(OC)C=COC(C)(O7)C6=O)CC1 (stereo not shown) [Compound 3, 25-O-deacetyl-3′-hydroxy-5′-(4-ethylcarbamyl-1-piperidinyl)benzoxazinorifamycin]
- MIC (μg/mL) H. flu (H. flu): 0.25 µg/mL (≈ 0.269 µM)
- MIC (μg/mL) S. aureus (S. aureus): 0.03 µg/mL (≈ 0.0323 µM)
- MIC (μg/mL) S. pneumo. (S. pneumo.): 0.0005 µg/mL (≈ 0.000538 µM)
- MIC (μg/mL) E. faecalis (E. faecalis): 0.12 µg/mL (≈ 0.129 µM)
- MIC (μg/mL) E. coli (E. coli): 4 µg/mL (≈ 4.31 µM)

SMILES: CO[C@H]1/C=C/O[C@@]2(C)Oc3c(C)c(O)c4c(=O)c(c5oc6cc(N7CCC(NS(C)(=O)=O)CC7)cc(O)c6nc-5c4c3C2=O)NC(=O)/C(C)=C\C=C\[C@H](C)[C@H](O)[C@@H](C)[C@@H](O)[C@@H](C)[C@H](OC(C)=O)[C@@H]1C [Compound 25]
- MIC (μg/mL) E. coli (E. coli): >8 µg/mL

SMILES: CCCNC(=O)NC1CCN(c2cc(O)c3nc4c5c6c7c(C)c(O)c5c(=O)c(c-4oc3c2)NC(=O)C(C)=CC=CC(C)C(O)C(C)C(O)C(C)C(O)C(C)C(OC)C=COC(C)(O7)C6=O)CC1 (stereo not shown) [Compound 26, 25-O-deacetyl-3′-hydroxy-5′-[4-propyluryl-1-piperidinyl]benzoxazinorifamycin]
- MIC (μg/mL) H. flu (H. flu): 1 µg/mL (≈ 1.06 µM)
- MIC (μg/mL) S. aureus (S. aureus): 0.008 µg/mL (≈ 0.00849 µM)
- MIC (μg/mL) S. pneumo. (S. pneumo.): 0.00012 µg/mL (≈ 0.000127 µM)
- MIC (μg/mL) E. faecalis (E. faecalis): 2 µg/mL (≈ 2.12 µM)
- MIC (μg/mL) E. coli (E. coli): >8 µg/mL

SMILES: COC1C=COC2(C)Oc3c(C)c(O)c4c(=O)c(c5oc6cc(N7CCC(NS(C)(=O)=O)CC7)cc(O)c6nc-5c4c3C2=O)NC(=O)C(C)=CC=CC(C)C(O)C(C)C(O)C(C)C(O)C1C (stereo not shown) [Compound 27]
- MIC (μg/mL) H. flu (H. flu): 0.12 µg/mL (≈ 0.128 µM)
- MIC (μg/mL) S. aureus (S. aureus): 0.015 µg/mL (≈ 0.016 µM)
- MIC (μg/mL) S. pneumo. (S. pneumo.): 0.001 µg/mL (≈ 0.00107 µM)
- MIC (μg/mL) E. faecalis (E. faecalis): 1 µg/mL (≈ 1.07 µM)
- MIC (μg/mL) E. coli (E. coli): >8 µg/mL

SMILES: CCCNC(=O)NC1CCN(c2cc(O)c3nc4c5c6c7c(C)c(O)c5c(=O)c(c-4oc3c2)NC(=O)/C(C)=C\C=C\[C@H](C)[C@H](O)[C@@H](C)[C@@H](O)[C@@H](C)[C@H](OC(C)=O)[C@H](C)[C@@H](OC)/C=C/O[C@@](C)(O7)C6=O)CC1 [Compound 28, 3′-hydroxy-5′-[4-propyluryl-1-piperidinyl]benzoxazinorifamycin]
- MIC (μg/mL) E. coli (E. coli): >8 µg/mL

SMILES: COC1C=COC2(C)Oc3c(C)c(O)c4c(=O)c(c5oc6cc(N7CCC(NC(=O)OC(C)C)CC7)cc(O)c6nc-5c4c3C2=O)NC(=O)C(C)=CC=CC(C)C(O)C(C)C(O)C(C)C(O)C1C (stereo not shown) [Compound 29, 25-O-deacetyl-3′-hydroxy-5′-[4-isopropylcarbamyl-1-piperidinyl]benzoxazinorifamycin]
- MIC (μg/mL) H. flu (H. flu): 1 µg/mL (≈ 1.06 µM)
- MIC (μg/mL) S. aureus (S. aureus): 0.008 µg/mL (≈ 0.00848 µM)
- MIC (μg/mL) S. pneumo. (S. pneumo.): 0.00012 µg/mL (≈ 0.000127 µM)
- MIC (μg/mL) E. faecalis (E. faecalis): 2 µg/mL (≈ 2.12 µM)
- MIC (μg/mL) E. coli (E. coli): >8 µg/mL

SMILES: COC(=O)NC1CCN(c2cc(O)c3nc4c5c6c7c(C)c(O)c5c(=O)c(c-4oc3c2)NC(=O)/C(C)=C\C=C\[C@H](C)[C@H](O)[C@@H](C)[C@@H](O)[C@@H](C)[C@H](O)[C@H](C)[C@@H](OC)/C=C/O[C@@](C)(O7)C6=O)CC1 [Compound 30, 25-O-deacetyl-3′-hydroxy-5′-[4-methylcarbamyl-1-piperidinyl]benzoxazinorifamycin]
- MIC (μg/mL) E. coli (E. coli): >8 µg/mL

SMILES: CCOC(=O)NC1CCN(c2ccc3nc4c5c6c7c(C)c(O)c5c(=O)c(c-4n(C)c3c2)NC(=O)/C(C)=C\C=C\[C@H](C)[C@H](O)[C@@H](C)[C@@H](O)[C@@H](C)[C@H](O)[C@H](C)[C@@H](OC)/C=C/O[C@@](C)(O7)C6=O)CC1 [Compound 31]
- MIC (μg/mL) E. coli (E. coli): 8 µg/mL (≈ 8.64 µM)

SMILES: CO[C@H]1/C=C/O[C@@]2(C)Oc3c(C)c(O)c4c(=O)c(c5oc6cc(N7CCC(N)CC7)cc(O)c6nc-5c4c3C2=O)NC(=O)/C(C)=C\C=C\[C@H](C)[C@H](O)[C@@H](C)[C@@H](O)[C@@H](C)[C@H](OC(C)=O)[C@@H]1C [Compound 33, 3′-hydroxy-5′-[4-amino-1-piperidinyl]benzoxazinorifamycin]
- MIC (μg/mL) E. coli (E. coli): >8 µg/mL

SMILES: CCNC(=O)NC1CCN(c2cc(O)c3nc4c5c6c7c(C)c(O)c5c(=O)c(c-4oc3c2)NC(=O)/C(C)=C\C=C\[C@H](C)[C@H](O)[C@@H](C)[C@@H](O)[C@@H](C)[C@H](OC(C)=O)[C@H](C)[C@@H](OC)/C=C/O[C@@](C)(O7)C6=O)CC1 [Compound 34, 3′-hydroxy-5′-[4-ethyluryl-1-piperidinyl]benzoxazinorifamycin]
- MIC (μg/mL) E. coli (E. coli): 8 µg/mL (≈ 8.25 µM)

SMILES: CCCS(=O)(=O)NC1CCN(c2cc(O)c3nc4c5c6c7c(C)c(O)c5c(=O)c(c-4oc3c2)NC(=O)/C(C)=C\C=C\[C@H](C)[C@H](O)[C@@H](C)[C@@H](O)[C@@H](C)[C@H](OC(C)=O)[C@H](C)[C@@H](OC)/C=C/O[C@@](C)(O7)C6=O)CC1 [Compound 35]
- MIC (μg/mL) H. flu (H. flu): 0.5 µg/mL (≈ 0.497 µM)
- MIC (μg/mL) S. aureus (S. aureus): 0.015 µg/mL (≈ 0.0149 µM)
- MIC (μg/mL) S. pneumo. (S. pneumo.): 0.00025 µg/mL (≈ 0.000249 µM)
- MIC (μg/mL) E. faecalis (E. faecalis): 4 µg/mL (≈ 3.98 µM)
- MIC (μg/mL) E. coli (E. coli): 8 µg/mL (≈ 7.96 µM)

SMILES: CCCC(=O)NC1CCN(c2cc(O)c3nc4c5c6c7c(C)c(O)c5c(=O)c(c-4oc3c2)NC(=O)C(C)=CC=CC(C)C(O)C(C)C(O)C(C)C(O)C(C)C(OC)C=COC(C)(O7)C6=O)CC1 (stereo not shown) [Compound 36, 25-O-deacetyl-3′-hydroxy-5′-[4-butanamide-1-piperidinyl]benzoxazinorifamycin]
- MIC (μg/mL) E. coli (E. coli): >8 µg/mL

SMILES: CCNC(=O)NC1CCN(c2cc(O)c3nc4c5c6c7c(C)c(O)c5c(=O)c(c-4oc3c2)NC(=O)C(C)=CC=CC(C)C(O)C(C)C(O)C(C)C(O)C(C)C(OC)C=COC(C)(O7)C6=O)CC1 (stereo not shown) [Compound 37, 25-O-deacetyl-3′-hydroxy-5′-[4-ethyluryl-1-piperidinyl]benzoxazinorifamycin]
- MIC (μg/mL) E. coli (E. coli): >8 µg/mL

SMILES: COC1C=COC2(C)Oc3c(C)c(O)c4c(=O)c(c5oc6cc(N7CCC(NS(=O)(=O)C(F)(F)F)CC7)cc(O)c6nc-5c4c3C2=O)NC(=O)C(C)=CC=CC(C)C(O)C(C)C(O)C(C)C(O)C1C (stereo not shown) [Compound 38]
- MIC (μg/mL) E. coli (E. coli): >8 µg/mL

SMILES: COC1C=COC2(C)Oc3c(C)c(O)c4c(=O)c(c5oc6cc(N7CCC(NC(C)=O)CC7)cc(O)c6nc-5c4c3C2=O)NC(=O)C(C)=CC=CC(C)C(O)C(C)C(O)C(C)C(O)C1C (stereo not shown) [Compound 43, 25-O-deacetyl-3′-hydroxy-5′-[4-acetamide-1-piperidinyl]benzoxazinorifamycin]
- MIC (μg/mL) E. coli (E. coli): >8 µg/mL

SMILES: COC1C=COC2(C)Oc3c(C)c(O)c4c(=O)c(c5oc6cc(N7CCC(NC(=O)OC(C)(C)C)CC7)cc(O)c6nc-5c4c3C2=O)NC(=O)C(C)=CC=CC(C)C(O)C(C)C(O)C(C)C(O)C1C (stereo not shown) [Compound 52, 25-O-deacetyl-3′-hydroxy-5′-[4-(2,2-dimethylethyl)carbamyl-1-piperidinyl]benzoxazinorifamycin]
- MIC (μg/mL) E. coli (E. coli): >8 µg/mL

SMILES: COC1C=COC2(C)Oc3c(C)c(O)c4c(=O)c(c5oc6cc(N7CC8C(C7)C8N(C)C)cc(O)c6nc-5c4c3C2=O)NC(=O)C(C)=CC=CC(C)C(O)C(C)C(O)C(C)C(OC(C)=O)C1C [Compound 53, 3′-hydroxy-5′-[6-N,N-dimethylamino-(1R,5S)-3-azabicyclo[3.1.0]hex-3-yl]benzoxazinorifamycin]
- MIC (μg/mL) E. coli (E. coli): >8 µg/mL

SMILES: COC1C=COC2(C)Oc3c(C)c(O)c4c(=O)c(c5oc6cc(N7CC8C(C7)C8N(C)C)cc(O)c6nc-5c4c3C2=O)NC(=O)C(C)=CC=CC(C)C(O)C(C)C(O)C(C)C(O)C1C [Compound 54, 3′-hydroxy-5′-[6-N,N-dimethylamino-(1R,5S)-3-azabicyclo[3.1.0]hex-3-yl]benzoxazinorifamycin]
- MIC (μg/mL) E. coli (E. coli): >8 µg/mL

SMILES: COC1C=COC2(C)Oc3c(C)c(O)c4c(=O)c(c5oc6cc(N7CCC(CNC(C)=O)CC7)cc(O)c6nc-5c4c3C2=O)NC(=O)C(C)=CC=CC(C)C(O)C(C)C(O)C(C)C(O)C1C (stereo not shown) [Compound 56, 25-O-deacetyl-3′-hydroxy-5′-[4-acetylaminomethyl-1-piperidinyl]benzoxazinorifamycin]
- MIC (μg/mL) E. coli (E. coli): 8 µg/mL (≈ 8.76 µM)

SMILES: CCOC(=O)NCC1CCN(c2cc(O)c3nc4c5c6c7c(C)c(O)c5c(=O)c(c-4oc3c2)NC(=O)C(C)=CC=CC(C)C(O)C(C)C(O)C(C)C(O)C(C)C(OC)C=COC(C)(O7)C6=O)CC1 (stereo not shown) [Compound 60, 25-O-deacetyl-3′-hydroxy-5′-[4-ethylcarbamylmethyl-1-piperidinyl]benzoxazinorifamycin]
- MIC (μg/mL) E. coli (E. coli): >8 µg/mL

SMILES: COC1C=COC2(C)Oc3c(C)c(O)c4c(=O)c(c5oc6cc(N7CCC(c8ccccc8)CC7)cc(O)c6nc-5c4c3C2=O)NC(=O)C(C)=CC=CC(C)C(O)C(C)C(O)C(C)C(O)C1C (stereo not shown) [Compound 62, 25-O-deacetyl-3′-hydroxy-5′-[4-phenyl-1-piperidinyl]benzoxazinorifamycin]
- MIC (μg/mL) E. coli (E. coli): >8 µg/mL

SMILES: COCCOC(=O)NC1CCN(c2cc(O)c3nc4c5c6c7c(C)c(O)c5c(=O)c(c-4oc3c2)NC(=O)C(C)=CC=CC(C)C(O)C(C)C(O)C(C)C(O)C(C)C(OC)C=COC(C)(O7)C6=O)CC1 (stereo not shown) [Compound 63, 25-O-deacetyl-3′-hydroxy-5′-[4-methoxyethylcarbamyl-1-piperidinyl]benzoxazinorifamycin]
- MIC (μg/mL) E. coli (E. coli): 8 µg/mL (≈ 8.34 µM)

SMILES: CCCS(=O)(=O)NC1CCN(c2cc(O)c3nc4c5c6c7c(C)c(O)c5c(=O)c(c-4oc3c2)NC(=O)C(C)=CC=CC(C)C(O)C(C)C(O)C(C)C(O)C(C)C(OC)C=COC(C)(O7)C6=O)CC1 (stereo not shown) [Compound 67]
- MIC (μg/mL) E. coli (E. coli): >8 µg/mL

SMILES: COC1C=COC2(C)Oc3c(C)c(O)c4c(=O)c(c5oc6cc(N7CCC(C)(NC(C)=O)CC7)cc(O)c6nc-5c4c3C2=O)NC(=O)C(C)=CC=CC(C)C(O)C(C)C(O)C(C)C(O)C1C (stereo not shown) [Compound 74, 25-O-deacetyl-3′-hydroxy-5′-[4-methyl-4-acetylamino-1-piperidinyl]benzoxazinorifamycin]
- MIC (μg/mL) E. coli (E. coli): >8 µg/mL
